Like-named read-outs stand apart in the source and are kept apart here.
Key:
[1] = molecular target: T1, MT2 (Homo sapiens, UniProt P49286); test: [3H]melatonin competition radioligand binding, MT2 membranes; set-up: expressed in transfected cells; host or cells: HEK293T (ATCC CRL-11268), transient transfection; details: read-out: MT2 pKi ± SEM (converted)
T1 sequence (P49286 1-362): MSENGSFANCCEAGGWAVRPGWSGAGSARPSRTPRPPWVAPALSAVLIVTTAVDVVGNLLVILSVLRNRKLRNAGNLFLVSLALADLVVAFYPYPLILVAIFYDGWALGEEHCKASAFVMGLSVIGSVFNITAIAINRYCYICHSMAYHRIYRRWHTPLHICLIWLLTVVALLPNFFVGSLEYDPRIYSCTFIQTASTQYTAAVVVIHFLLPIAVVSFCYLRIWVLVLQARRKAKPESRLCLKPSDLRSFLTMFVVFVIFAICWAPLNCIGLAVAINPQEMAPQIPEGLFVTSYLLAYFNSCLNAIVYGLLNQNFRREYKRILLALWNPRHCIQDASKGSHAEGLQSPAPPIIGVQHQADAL
Experimental: (§1) The Radioligand binding assays were conducted by the NIMH Psychoactive Drug Screening Program (PDSP). The NIMH PDSP is directed by Bryan L. Roth, MD, PhD, at the University of North Carolina at Chapel Hill, North Carolina, and Program Officer Jamie Driscoll at NIMH, Bethesda, MD. Binding assay procedures and protocols are also available online at http://pdspdb.unc.edu/pdspWeb/?site=assays. […] Assay plates were sealed and incubated for 4 hr at 37°C in a humidified incubator until harvesting. Plates were harvested using vacuum filtration onto 0.3% polyethyleneimine pre-soaked 96-well Filtermat A (PerkinElmer) and washed three times with cold wash buffer (50 mM Tris, pH 7.4). Filters were dried and melted with a scintillation cocktail (Meltilex, PerkinElmer). Radioactivity was counted using a Wallac TriLux Microbeta counter (PerkinElmer). Results were analyzed using GraphPad Prism 7.0.

[2] = molecular target: T1, MT2; test: Bias factor, Gi-cAMP versus Tango (Black and Leff operational model), MT2; assay type: cell-based; set-up: expressed in transfected cells; host or cells: HEK293T (ATCC CRL-11268), transient transfection; details: G-protein over β-arrestin at MT2; reference melatonin; 10^ΔΔLog(τ/KA)
Experimental: Bias factors were estimated according to the published procedure [Kenakin et al. (2012)] with modifications. Briefly, normalized and pooled results were analyzed by fitting the Black and Leff operational model in Prism 7.0 to obtain Log(τ/KA) values for each pathway (Tango and Gi-cAMP). Within each signaling pathway, a difference of Log(τ/KA), ΔLog(τ/KA), between a test compound and selected reference (melatonin in this case) was calculated. For a testing compound, the difference of ΔLog(τ/KA), ΔΔLog(τ/KA), was then obtained between two pathways. The bias factor is 10^ΔΔLog(τ/KA).

[3] = molecular target: T2, 5-HT1D (Homo sapiens, UniProt P28221); test: Off-target radioligand binding, 5-HT1D
T2 construct: expressed in transfected cells; host or cells: HEK293T, transient transfection (NIMH PDSP)
T2 sequence (P28221 whole entry, species assumed): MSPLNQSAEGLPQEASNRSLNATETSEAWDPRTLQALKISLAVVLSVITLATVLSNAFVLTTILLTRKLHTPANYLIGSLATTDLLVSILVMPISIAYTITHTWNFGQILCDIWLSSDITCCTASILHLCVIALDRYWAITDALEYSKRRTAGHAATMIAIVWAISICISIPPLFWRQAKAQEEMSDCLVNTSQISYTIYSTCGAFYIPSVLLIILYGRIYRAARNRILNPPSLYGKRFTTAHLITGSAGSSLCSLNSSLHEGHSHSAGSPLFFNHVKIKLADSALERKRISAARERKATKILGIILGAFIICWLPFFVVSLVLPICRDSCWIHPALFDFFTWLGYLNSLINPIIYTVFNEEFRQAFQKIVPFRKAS
Experimental: as §1

[4] = molecular target: T3, MT1 wildtype (WT) (Homo sapiens, UniProt P48039); test: Tango β-arrestin recruitment assay, MT1 wildtype; assay type: cell-based; details: normalized individually (basal 0%, maximum 100%); mean ± SEM, minimum of 3 assays; read-out: pEC50, Tango, MT1 WT (converted)
T3 construct: host or cells: HTLA cells (HEKT based)
T3 sequence (P48039 whole entry): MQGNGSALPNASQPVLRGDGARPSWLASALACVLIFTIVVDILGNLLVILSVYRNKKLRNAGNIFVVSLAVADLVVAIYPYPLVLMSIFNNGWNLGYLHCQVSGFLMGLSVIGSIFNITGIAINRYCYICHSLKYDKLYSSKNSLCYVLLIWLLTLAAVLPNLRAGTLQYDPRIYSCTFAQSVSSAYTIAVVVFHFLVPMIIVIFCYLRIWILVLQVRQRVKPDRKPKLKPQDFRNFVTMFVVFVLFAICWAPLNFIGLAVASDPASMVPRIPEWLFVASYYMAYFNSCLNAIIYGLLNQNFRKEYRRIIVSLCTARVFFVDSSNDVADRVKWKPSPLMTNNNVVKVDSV
Experimental: In brief, HTLA cells were transiently transfected with receptor TANGO DNA constructs overnight in DMEM with 10% FBS. Transfected cells were then plated into poly-L-Lys coated 384-well plates using DMEM supplemented with 1% dialyzed FBS. After 6 hr incubation, drug dilutions, prepared in DMEM with 1% dFBS, were added for incubation overnight (16–20 hr). Medium and drug solutions were removed, Bright-Glo reagent (20 uL/well) was added for luminescence counting 20 min later. Results were analyzed in GraphPad Prism 7.0.

[5] = molecular target: T4, MT1 (Homo sapiens, UniProt P48039); test: GloSensor Gi/o-mediated cAMP production inhibition assay, MT1; assay type: cell-based; details: for EC50: Gi/o mediated
T4 construct: expressed in transfected cells; host or cells: HEK293T (ATCC CRL-11268), transient transfection
T4 sequence (P48039 whole entry): as above
Experimental: Briefly, HEK293 T cells (as above) were transiently co-transfected with receptor (MT1 or MT2) and GloSensor cAMP (Promega) plasmids overnight, plated in Poly-L-Lysine coated 384-well white clear bottom plates in DMEM + 1% dialyzed FBS. Cells were used for assays at a minimum of 6 hr after plating. Culture medium was first removed and cells were stimulated with drugs in assay buffer (1x HBSS, 20 mM HEPES, 1 mg/ml BSA, 0.1 mg/ml ascorbic acid, pH 7.4) for 15 min at room temperature (this and all the following steps), followed by addition of a mixture of isoproterenol (final of 100 nM) and luciferin (final of 1 mM) for Gi/o-cAMP production inhibition assays and luciferin (final of 1 mM) for Gs-cAMP production assays. The plates were counted for luminescence after 25 min in a luminescence plate reader. Results were analyzed using GraphPad Prism 7.0.

COc1ccc2[nH]cc(CCNC(N)=O)c2c1 [Compound 28, [2-(5-methoxy-1H-indol-3-yl)ethyl]urea]
Ki [1]: 23.4 nM | bias factor [2]: 33.9 | inhibition at 10 µM ([3]; 10 μM): > 50% | Ki ([3]; read-out: pKi, 5-HT1D (converted)): 1510 nM | EC50 [4]: 22.9 nM | EC50 ([5]; SEM, N = 3, read-out: MT1 pEC50 ± SEM (converted)): 0.0407 nM | EC50 ([5]; read-out: MT1 EC50): 0.04 nM | MT1 LE ([5]; ligand efficiency (based on EC50)): 0.86 kcal/mol per non-hydrogen atom | Emax ([5]; read-out: MT1 Emax ± SEM): 95.3 ± 2.6%

Reference: PMC7080406 (eLife, 2020)
